The subject of one assay is hNET. In words: NE transport assay in CAD-his-hNET cells. Type of assay: cell-based, human. On the set-up: dose or concentration left out as unconfirmed. The note with it: incubated 0, 1, 4 and 24 hrs prior to NE transport assay; triplicates. The procedure:
FIG. 5A—Inhibition of proteasomes influence NET transport in cells. CAD-his-hNET cells in 24 well plates were incubated in MG132 ([…]) for 0, 1, 4 and 24 hrs prior to NE transport assay in triplicates.
Transport Assay. CAD-his-hNET cells in 24 well plates were incubated in MG132 ([…]) for 0, 1, 4 and 24 hrs prior to NE transport assay in triplicates. Protein Assay. CAD cells transfected with NET and Ub were preincubated with MG132 for 4 hrs prior to cell lysis and immunoblot with anti-NET for protein analysis.

The target of assay [1] is T1, NET (Homo sapiens, UniProt P23975).
T1 construct: expressed in transfected cells; host or cells: CAD cells (transient, co-transfected with HA-Ub)
The experiment in a line: NET proteins (total) by immunoblot with anti-NET in transfected CAD cells. Type of assay: cell-based. Also noted: dose or concentration left out as unconfirmed. The conditions noted are these: CAD cells transfected with NET and Ub; preincubated 4 hrs prior to lysis. The procedure:
(§1) Acute regulation of NET ubiquitination by PMA and methacholine (meth) was assessed. […] One mM PMA and 1 mM meth both increased ubiquitination of NET (FIG. 3). Chronic regulation of ubiquitination of NET was assessed in CAD cells transfected with NET and HA-Ub. […] FIGS. 5A-5B.

The target of assay [2] is T1, NET. In words: Ubiquitination of NET: IP with anti-HA (Ub), immunoblot with anti-NET, in transfected CAD cells. The note with it: CAD cells transfected with NET and HA-Ub; 1 mM, pre-incubated 30 min at 37° C. before IP; vs vehicle. Type of assay: cell-based. The procedure: Prior to IP, cells were pre-incubated in media containing either vehicle (control), 1 mM PMA, or 1 mM methacholine (meth) for 30 min. PMA and methacholine increased ubiquitination of NET.
as §1
A general note: A western blot detects proteins with antibodies after separation by electrophoresis.

The next assay deals with CAD cells. The experiment in a line: Ponceau-S staining of the total membrane (other cellular proteins). The conditions noted are these: desipramine treatment for 3 days.
In a further assay the target is T2, dopamine transporter (Canis lupus familiaris, UniProt A0A8I3S5A0).
T2 construct: digitonin-solubilized dopamine transporters from dog caudate nucleus; from tissue; host or cells: dog caudate nucleus, digitonin-solubilized extract
The note with it: cited from earlier work.

The mark [3] stands for this setting: digitonin-solubilized extract of dog caudate.

Residues, ends and D or L forms follow the SMILES beside them. *: point of attachment. Cbz = O=C(OCc1ccccc1)*

Results on eight compounds are retold here after patent US20070199084A1, “Ubiquitination of Membrane Transporters” (VANDERBILT UNIVERSITY, priority 2005, published 2007).

T1 sequence (P23975 whole entry): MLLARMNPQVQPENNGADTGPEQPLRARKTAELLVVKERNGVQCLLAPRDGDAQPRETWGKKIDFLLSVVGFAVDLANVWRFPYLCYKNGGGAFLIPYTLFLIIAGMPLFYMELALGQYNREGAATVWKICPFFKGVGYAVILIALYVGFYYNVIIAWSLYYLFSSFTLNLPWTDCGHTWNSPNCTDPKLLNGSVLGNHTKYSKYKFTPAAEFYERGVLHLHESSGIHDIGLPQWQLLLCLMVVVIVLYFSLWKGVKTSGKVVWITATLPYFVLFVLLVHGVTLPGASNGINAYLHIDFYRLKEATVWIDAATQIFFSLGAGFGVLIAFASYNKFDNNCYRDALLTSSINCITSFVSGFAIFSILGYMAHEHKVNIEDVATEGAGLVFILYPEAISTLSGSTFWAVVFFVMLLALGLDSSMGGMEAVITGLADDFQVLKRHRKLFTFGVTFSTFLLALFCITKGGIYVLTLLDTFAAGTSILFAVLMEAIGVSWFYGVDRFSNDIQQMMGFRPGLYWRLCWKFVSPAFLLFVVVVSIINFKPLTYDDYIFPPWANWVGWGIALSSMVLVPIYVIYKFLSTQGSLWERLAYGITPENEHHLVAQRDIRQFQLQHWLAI
T2 sequence (A0A8I3S5A0 1-617): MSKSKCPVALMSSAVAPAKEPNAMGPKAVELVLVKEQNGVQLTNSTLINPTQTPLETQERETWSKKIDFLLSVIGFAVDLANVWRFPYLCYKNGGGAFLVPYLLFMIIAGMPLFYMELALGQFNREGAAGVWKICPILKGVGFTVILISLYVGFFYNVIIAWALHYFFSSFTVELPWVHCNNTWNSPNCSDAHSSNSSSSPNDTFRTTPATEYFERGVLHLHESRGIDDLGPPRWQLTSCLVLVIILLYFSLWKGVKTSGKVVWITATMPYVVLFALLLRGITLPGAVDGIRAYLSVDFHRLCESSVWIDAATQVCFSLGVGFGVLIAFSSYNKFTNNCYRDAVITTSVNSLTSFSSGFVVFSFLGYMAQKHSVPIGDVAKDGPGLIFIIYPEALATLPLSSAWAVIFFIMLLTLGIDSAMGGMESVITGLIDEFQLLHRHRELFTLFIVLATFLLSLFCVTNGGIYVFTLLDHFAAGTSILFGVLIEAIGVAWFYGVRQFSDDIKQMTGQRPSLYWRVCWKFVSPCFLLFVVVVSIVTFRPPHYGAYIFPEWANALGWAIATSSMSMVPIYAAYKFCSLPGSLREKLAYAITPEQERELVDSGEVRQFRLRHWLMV

Take `CC(C)C[C@@H](C=O)NC(=O)[C@H](CC(C)C)NC(=O)[C@H](CC(C)C)NC(=O)OCc1ccccc1` [MG132] (Cbz-Leu-Leu-Leu-aldehyde): in the assay with hNET, the NET transport entry is recorded as “increase”. Besides, the NET protein concentration entry at NET [1] is “increase”. Consider `CCCCCCCCCCCCCC(=O)O[C@@H]1[C@@H](C)[C@@]2(O)[C@@H](C=C(CO)C[C@]3(O)C(=O)C(C)=C[C@@H]23)[C@@H]2C(C)(C)[C@]12OC(C)=O` [PMA], for which the “ubiquitination of NET (acute regulation)” value at NET [2] is listed as “increased”. For the compound `CNCCCN1c2ccccc2CCc2ccccc21` [Desipramine, desipramine], in the assay with CAD cells, the “amounts of other cellular proteins (Ponceau-S stain of total membrane)” value is reported as “no change”. On dopamine transporter (setting [3]), the “inhibition of soluble [3H]WIN 35,428 binding (competition studies)” value (shortened to “inhibition of soluble”) was “weakly”. With `OC1(c2ccc(Cl)cc2)c2ccccc2C2=NCCN21` (stereo not shown) [mazindol], on dopamine transporter (setting [3]), the “inhibition of soluble” value is listed as “strongly”.

Consider `COC(=O)[C@H]1[C@@H](c2ccc(F)cc2)C[C@@H]2CC[C@H]1N2C` [[^3H]WIN 35,428], for which the Kd (in general, the constant that tells how readily two partners part at equilibrium) at dopamine transporter (digitonin-solubilized extract of dog caudate, read-out: Kd of binding) is 16 nM. Turning to `CC(=O)OC(C)C[N+](C)(C)C` (stereo not shown) [meth, methacholine], the “ubiquitination of NET (acute regulation)” value on NET [2] is reported as “increased”. As for `COC(=O)C1C(OC(=O)c2ccccc2)CC2CCC1N2C` (single isomer, unassigned; (+)) [(+)-cocaine], on dopamine transporter (setting [3]), the “inhibition of soluble” value was “weakly”. For the compound (−)-cocaine, the “potency compared to assays using [3H]GBR 12935” value on dopamine transporter (competition against [3H]WIN 35,428) is “relatively more potent”.
